Experiment [1] concerns the target T1, NH(3)-dependent NAD(+) synthetase (Bacillus anthracis, UniProt Q81RP3).
T1 sequence (Q81RP3 whole entry): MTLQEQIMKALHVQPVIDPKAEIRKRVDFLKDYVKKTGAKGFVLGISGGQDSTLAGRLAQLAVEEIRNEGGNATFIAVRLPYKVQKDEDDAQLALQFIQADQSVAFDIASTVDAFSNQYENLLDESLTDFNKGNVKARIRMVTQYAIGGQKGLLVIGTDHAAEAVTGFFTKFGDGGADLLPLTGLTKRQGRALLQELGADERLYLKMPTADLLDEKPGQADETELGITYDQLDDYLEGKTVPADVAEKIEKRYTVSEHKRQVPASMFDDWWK
The experiment can be described thus: NADs HPLC Enzyme Assay. As to conditions: pH 8.5; 4 °C. From the text:
Inhibitory concentration of the compound measured against B. anthracis Nicotinamide adenine dinucleotide synthetase (NADs) using HPLC Enzyme Assay

The target of experiment [2] is T2, Probable nicotinate-nucleotide adenylyltransferase (Bacillus anthracis (strain CDC 684 / NRRL 3495), UniProt C3L5T6).
T2 sequence (C3L5T6 whole entry): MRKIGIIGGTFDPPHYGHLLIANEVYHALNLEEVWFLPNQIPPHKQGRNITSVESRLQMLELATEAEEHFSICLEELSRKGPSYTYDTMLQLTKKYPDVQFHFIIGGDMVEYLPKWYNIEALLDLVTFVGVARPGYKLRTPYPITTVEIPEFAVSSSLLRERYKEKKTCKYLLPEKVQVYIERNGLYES
The experiment can be described thus: NaMNAT HPLC Enzyme Assay. As to conditions: pH 7.5; 0 °C. An excerpt: Inhibitory concentration of the compound measured against B. anthracis Nicotinic acid mononucleotide adenylyltransferase (NaMNAT)using HPLC Enzyme Assay

In BindingDB's records for doi:10.1021/cc9000357 (University of Alabama At Birmingham, 2009) one finds IC50 data, which are given here for seven compounds.

What is called IC50 is the point on the concentration scale where inhibition reaches its midpoint. A low value points to greater potency in that assay.

Take `O=C(Nc1ccc(NS(=O)(=O)c2ccc(C(F)(F)F)cc2)cc1)Nc1cccc([N+](=O)[O-])c1` [1-(3-nitrophenyl)-3-[4-[[4-(trifluoromethyl)phenyl]sulfonylamino]phenyl]urea]: in experiment [1], the IC50 is 143 µM. As for `Nc1ccc(S(=O)(=O)Nc2ccc(NC(=O)Nc3ccccc3[N+](=O)[O-])cc2)cc1` [1-[4-[(4-aminophenyl)sulfonylamino]phenyl]-3-(2-nitrophenyl)urea], the IC50 in experiment [1] is 17.1 µM; in experiment [2] it was > 150 µM. On the same counts, the results for `O=C(Nc1ccc(NS(=O)(=O)c2ccc(Cl)c(Cl)c2)cc1)Nc1cccc([N+](=O)[O-])c1` [1-[4-[(3,4-dichlorophenyl)sulfonylamino]phenyl]-3-(3-nitrophenyl)urea] are 95.5 µM and 382 µM. On the same counts, the results for `O=C(Nc1ccc(NS(=O)(=O)c2ccc(Cl)c(Cl)c2)cc1)Nc1ccc([N+](=O)[O-])cc1` [1-[4-[(3,4-dichlorophenyl)sulfonylamino]phenyl]-3-(4-nitrophenyl)urea] are 32.7 µM and 7.3 µM.

`O=C(Nc1ccc([N+](=O)[O-])cc1)Nc1ccc(S(=O)(=O)Nc2ccc(Cl)c(Cl)c2)cc1`: the values for the IC50 in experiment [1] and in experiment [2] were 6.4 µM and 2 µM, respectively. As for `O=C(Nc1ccc(NS(=O)(=O)c2ccc(Cl)c(Cl)c2)cc1)Nc1ccccc1[N+](=O)[O-]` [1-[4-[(3,4-dichlorophenyl)sulfonylamino]phenyl]-3-(2-nitrophenyl)urea], the IC50 in experiment [1] was 443 µM; in experiment [2] it was > 600 µM. For `O=C(Nc1ccc(NS(=O)(=O)c2ccc(F)cc2)cc1)Nc1ccc([N+](=O)[O-])cc1` [1-[4-[(4-fluorophenyl)sulfonylamino]phenyl]-3-(4-nitrophenyl)urea], in experiment [2], the IC50 came out at 370 µM.
